Values after ≈ are worked out from the molar mass of the structure shown. Where two headings read alike, the source gives them in different places.
What was measured:
[1] = tested on: Escherichia coli K-12 ML1410; assay: antibacterial spectrum, minimal inhibitory concentration; format: cell-based; settings: K12ML1410
[2] = tested on: Bacillus cereus; assay: as above; format: cell-based
[3] = tested on: Staphylococcus aureus 209P JC-1; assay: as above; format: cell-based
[4] = tested on: Bacillus anthracis; assay: microbe, parasite or virus in culture; format: cell-based; settings: read-out: Minimal inhibitory concentration
[5] = tested on: Pseudomonas aeruginosa No. 99; assay: antibacterial spectrum, minimal inhibitory concentration; format: cell-based
[6] = tested on: Escherichia coli NIHJ JC-2; assay: as above; format: cell-based
[7] = tested on: Pseudomonas aeruginosa GN315; assay: as above; format: cell-based
[8] = tested on: Pseudomonas aeruginosa TI-13; assay: as above; format: cell-based
Excerpt: | Resistance mechanism: ^a APH(3')I,

[9] = tested on: Serratia marcescens; assay: as above; format: cell-based; settings: read-out: Minimal inhibitory concentration
[10] = tested on: Pseudomonas aeruginosa K-11; assay: as above; format: cell-based
[11] = tested on: Bacillus subtilis ATCC 6633; assay: as above; format: cell-based; settings: ATCC6633
[12] = tested on: Escherichia coli R-82; assay: as above; format: cell-based; settings: R82, resistance mechanism APH(3')II
[13] = tested on: Pseudomonas aeruginosa TK-157; assay: as above; format: cell-based
[14] = tested on: Proteus inconstans GN1554; assay: as above; format: cell-based; settings: Providencia alcalifaciens
[15] = tested on: Pseudomonas aeruginosa A3; assay: as above; format: cell-based
[16] = tested on: Escherichia coli R-101; assay: as above; format: cell-based
[17] = tested on: Escherichia coli R-176; assay: as above; format: cell-based; settings: R176, resistance mechanism AAC(3)II
[18] = tested on: Proteus vulgaris OX-19; assay: as above; format: cell-based
[19] = tested on: Escherichia coli R-81; assay: as above; settings: R81, read-out: Minimal inhibitory concentration
[20] = tested on: Klebsiella pneumoniae PCI 602; assay: as above; format: cell-based
[21] = tested on: Pseudomonas aeruginosa No. 12; assay: as above; format: cell-based
[22] = tested on: Streptococcus faecalis; assay: as above; format: cell-based; settings: Enterococcus faecalis
[23] = tested on: Escherichia coli JR88/W677; assay: as above; format: cell-based; settings: resistance mechanism AAC(3)I
[24] = Pseudomonas aeruginosa No. 99, resistance mechanism AAC(3)I, read-out: Minimal inhibitory concentration
[25] = Escherichia coli, NIHJJC2, read-out: Minimal inhibitory concentration
[26] = Pseudomonas aeruginosa GN315, resistance mechanism AAC(6')IV, read-out: Minimal inhibitory concentration
[27] = TI13, Pseudomonas aeruginosa TI-13, resistance mechanism APH(3')I, read-out: Minimal inhibitory concentration
[28] = K11, Pseudomonas aeruginosa K-11, read-out: Minimal inhibitory concentration
[29] = TK157, Pseudomonas aeruginosa TK-157, resistance mechanism APH(3')II, read-out: Minimal inhibitory concentration
[30] = Proteus inconstans GN1554, resistance mechanism AAC(2'), read-out: Minimal inhibitory concentration
[31] = Pseudomonas aeruginosa A3, read-out: Minimal inhibitory concentration
[32] = Escherichia coli, R101, read-out: Minimal inhibitory concentration
[33] = OX19, Proteus vulgaris OX-19, read-out: Minimal inhibitory concentration
[34] = PCI602, Klebsiella pneumoniae PCI 602, read-out: Minimal inhibitory concentration
[35] = Pseudomonas aeruginosa, NO.99, read-out: Minimal inhibitory concentration
[36] = Pseudomonas aeruginosa, GN315, read-out: Minimal inhibitory concentration
[37] = Pseudomonas aeruginosa, TI13, read-out: Minimal inhibitory concentration
[38] = Pseudomonas aeruginosa, K11, read-out: Minimal inhibitory concentration
[39] = Pseudomonas aeruginosa, TK157, read-out: Minimal inhibitory concentration
[40] = GN1554, read-out: Minimal inhibitory concentration
[41] = Pseudomonas aeruginosa, A3, read-out: Minimal inhibitory concentration
[42] = Proteus vulgaris, OX19, read-out: Minimal inhibitory concentration
[43] = NIHJJC2, Escherichia coli NIHJ JC-2, read-out: Minimal inhibitory concentration
[44] = R101, Escherichia coli R-101, resistance mechanism AAD(2"), read-out: Minimal inhibitory concentration
[45] = Klebsiella pneumoniae, PCI602, read-out: Minimal inhibitory concentration

Structure (SMILES)	MIC [1]	MIC [2]	MIC [3]	MIC [4]	MIC [5, 24]	MIC [9]	MIC [10, 28]	MIC [11]	MIC [12]	MIC [13, 29]	MIC [16, 32]	MIC [17]	MIC [18, 33]	MIC [19]	MIC [20, 34]	MIC [21]	MIC [22]	MIC [23]	MIC [14, 40]	MIC [15, 41]	further results
COC1CC(N)C(OC2OC(C(C)N)CCC2N)C(O)C1N(C)C(=O)CN (stereo not drawn) [KA-6606 I, reference compound]	3.13 µg/mL (≈ 8.04 µM)	1.56 µg/mL (≈ 4.01 µM)	0.39 µg/mL (≈ 1 µM)	0.2 µg/mL (≈ 0.513 µM)	> 100 µg/mL	3.13 µg/mL (≈ 8.04 µM)	12.5 µg/mL (≈ 32.1 µM)	0.2 µg/mL (≈ 0.513 µM)	3.13 µg/mL (≈ 8.04 µM)	6.25 µg/mL (≈ 16 µM)	3.13 µg/mL (≈ 8.04 µM)	3.13 µg/mL (≈ 8.04 µM)	1.56 µg/mL (≈ 4.01 µM)	3.13 µg/mL (≈ 8.04 µM)	1.56 µg/mL (≈ 4.01 µM)	0.39 µg/mL (≈ 1 µM)	25 µg/mL (≈ 64.2 µM)	> 100 µg/mL	–	–	MIC [6, 25]: 3.13 µg/mL (≈ 8.04 µM); MIC [7, 26]: 12.5 µg/mL (≈ 32.1 µM); MIC [8, 27]: 6.25 µg/mL (≈ 16 µM); MIC [14, 30]: 6.25 µg/mL (≈ 16 µM); MIC [15, 31]: 6.25 µg/mL (≈ 16 µM)
CC(N)C1CCC(N)C(OC2C(N)CC(OCC(O)CCN)C(N(C)C(=O)CN)C2O)O1 (stereo not drawn) [B, 5-O-(4-amino-2-hydroxybutyl)-5-de-O-methyl-KA-6606 I]	3.13 µg/mL (≈ 6.77 µM)	1.56 µg/mL (≈ 3.37 µM)	0.39 µg/mL (≈ 0.843 µM)	≤ 0.1 µg/mL	–	1.56 µg/mL (≈ 3.37 µM)	–	≤ 0.1 µg/mL	3.13 µg/mL (≈ 6.77 µM)	–	3.13 µg/mL (≈ 6.77 µM)	6.25 µg/mL (≈ 13.5 µM)	–	3.13 µg/mL (≈ 6.77 µM)	1.56 µg/mL (≈ 3.37 µM)	0.39 µg/mL (≈ 0.843 µM)	50 µg/mL (≈ 108 µM)	3.13 µg/mL (≈ 6.77 µM)	6.25 µg/mL (≈ 13.5 µM)	3.13 µg/mL (≈ 6.77 µM)	MIC [5, 35]: 6.25 µg/mL (≈ 13.5 µM); MIC [6, 25]: 3.13 µg/mL (≈ 6.77 µM); MIC [7, 36]: 6.25 µg/mL (≈ 13.5 µM); MIC [8, 37]: 3.13 µg/mL (≈ 6.77 µM); MIC [10, 38]: 6.25 µg/mL (≈ 13.5 µM); MIC [13, 39]: 3.13 µg/mL (≈ 6.77 µM); MIC [18, 42]: 3.13 µg/mL (≈ 6.77 µM)
CC(N)C1CCC(N)C(OC2C(N)CC(O[C@H]3O[C@H](CO)[C@@H](O)[C@H](N)[C@H]3O)C(N(C)C(=O)CN)C2O)O1 (stereo partly drawn) [E, 5-O-(3-amino-3-deoxy-α-D-glucopyranosyl)-5-de-O-methyl-KA-6606 I]	6.25 µg/mL (≈ 11.6 µM)	0.78 µg/mL (≈ 1.45 µM)	0.39 µg/mL (≈ 0.727 µM)	0.2 µg/mL (≈ 0.373 µM)	12.5 µg/mL (≈ 23.3 µM)	1.56 µg/mL (≈ 2.91 µM)	3.13 µg/mL (≈ 5.83 µM)	0.2 µg/mL (≈ 0.373 µM)	6.25 µg/mL (≈ 11.6 µM)	–	–	6.25 µg/mL (≈ 11.6 µM)	3.13 µg/mL (≈ 5.83 µM)	6.25 µg/mL (≈ 11.6 µM)	–	0.39 µg/mL (≈ 0.727 µM)	50 µg/mL (≈ 93.2 µM)	1.56 µg/mL (≈ 2.91 µM)	6.25 µg/mL (≈ 11.6 µM)	6.25 µg/mL (≈ 11.6 µM)	MIC [6, 43]: 3.13 µg/mL (≈ 5.83 µM); MIC [7, 36]: 6.25 µg/mL (≈ 11.6 µM); MIC [8, 27]: 3.13 µg/mL (≈ 5.83 µM); MIC [13, 39]: 1.56 µg/mL (≈ 2.91 µM); MIC [16, 44]: 3.13 µg/mL (≈ 5.83 µM); MIC [20, 45]: 1.56 µg/mL (≈ 2.91 µM)
CC(N)C1CCC(N)C(OC2C(N)CC(OCC(O)CN)C(N(C)C(=O)CN)C2O)O1 (stereo not drawn) [A, 5-O-(3-amino-2-hydroxypropyl)-5-de-O-methyl-KA-6606 I]	3.13 µg/mL (≈ 6.98 µM)	0.78 µg/mL (≈ 1.74 µM)	0.39 µg/mL (≈ 0.869 µM)	≤ 0.1 µg/mL	–	1.56 µg/mL (≈ 3.48 µM)	–	0.2 µg/mL (≈ 0.446 µM)	3.13 µg/mL (≈ 6.98 µM)	1.56 µg/mL (≈ 3.48 µM)	3.13 µg/mL (≈ 6.98 µM)	6.25 µg/mL (≈ 13.9 µM)	–	3.13 µg/mL (≈ 6.98 µM)	1.56 µg/mL (≈ 3.48 µM)	0.39 µg/mL (≈ 0.869 µM)	50 µg/mL (≈ 111 µM)	6.25 µg/mL (≈ 13.9 µM)	6.25 µg/mL (≈ 13.9 µM)	–	MIC [5, 35]: 6.25 µg/mL (≈ 13.9 µM); MIC [6, 25]: 3.13 µg/mL (≈ 6.98 µM); MIC [7, 36]: 3.13 µg/mL (≈ 6.98 µM); MIC [8, 37]: 3.13 µg/mL (≈ 6.98 µM); MIC [10, 38]: 3.13 µg/mL (≈ 6.98 µM); MIC [15, 31]: 1.56 µg/mL (≈ 3.48 µM); MIC [18, 42]: 3.13 µg/mL (≈ 6.98 µM)
CC(N)C1CCC(N)C(OC2C(N)CC(OCC(O)CO)C(N(C)C(=O)CN)C2O)O1 (stereo not drawn) [C, 5-de-O-methyl-5-O-(2,3-dihydroxypropyl)-KA-6606 I]	6.25 µg/mL (≈ 13.9 µM)	3.13 µg/mL (≈ 6.96 µM)	0.39 µg/mL (≈ 0.868 µM)	≤ 0.1 µg/mL	25 µg/mL (≈ 55.6 µM)	3.13 µg/mL (≈ 6.96 µM)	12.5 µg/mL (≈ 27.8 µM)	0.2 µg/mL (≈ 0.445 µM)	6.25 µg/mL (≈ 13.9 µM)	12.5 µg/mL (≈ 27.8 µM)	6.25 µg/mL (≈ 13.9 µM)	6.25 µg/mL (≈ 13.9 µM)	3.13 µg/mL (≈ 6.96 µM)	6.25 µg/mL (≈ 13.9 µM)	0.78 µg/mL (≈ 1.74 µM)	1.56 µg/mL (≈ 3.47 µM)	100 µg/mL (≈ 222 µM)	6.25 µg/mL (≈ 13.9 µM)	6.25 µg/mL (≈ 13.9 µM)	6.25 µg/mL (≈ 13.9 µM)	MIC [6, 43]: 3.13 µg/mL (≈ 6.96 µM); MIC [7, 26]: 12.5 µg/mL (≈ 27.8 µM); MIC [8, 27]: 12.5 µg/mL (≈ 27.8 µM)
CC(N)C1CCC(N)C(OC2C(N)CC(O[C@@H]3O[C@H](CO)[C@@H](O)[C@H](O)[C@H]3O)C(N(C)C(=O)CN)C2O)O1 (stereo partly drawn) [D, 5-de-O-methyl-5-O-(β-D-glucopyranosyl)-KA-6606 I]	12.5 µg/mL (≈ 23.3 µM)	6.25 µg/mL (≈ 11.6 µM)	0.78 µg/mL (≈ 1.45 µM)	0.2 µg/mL (≈ 0.372 µM)	25 µg/mL (≈ 46.5 µM)	3.13 µg/mL (≈ 5.82 µM)	25 µg/mL (≈ 46.5 µM)	0.39 µg/mL (≈ 0.725 µM)	12.5 µg/mL (≈ 23.3 µM)	6.25 µg/mL (≈ 11.6 µM)	–	3.13 µg/mL (≈ 5.82 µM)	6.25 µg/mL (≈ 11.6 µM)	12.5 µg/mL (≈ 23.3 µM)	–	0.78 µg/mL (≈ 1.45 µM)	> 100 µg/mL	3.13 µg/mL (≈ 5.82 µM)	–	12.5 µg/mL (≈ 23.3 µM)	MIC [6, 43]: 6.25 µg/mL (≈ 11.6 µM); MIC [7, 26]: 25 µg/mL (≈ 46.5 µM); MIC [8, 37]: 12.5 µg/mL (≈ 23.3 µM); MIC [14, 30]: 25 µg/mL (≈ 46.5 µM); MIC [16, 44]: 6.25 µg/mL (≈ 11.6 µM); MIC [20, 45]: 3.13 µg/mL (≈ 5.82 µM)

From patent publication US4438107A, “Aminoglycosides and use thereof” (Kowa Company, Ltd., priority 1981, dated 1984)
